Tested on: c-MYC binding site luciferase reporter in PC-3 cells
Test: c-MYC binding site luciferase reporter assay
Format: cell-based
Details: 24 hours
Experimental: FIG. 9. Luciferase promoter Assay in PC-3 cells. PC-3 cells were treated with 1, 10, 50 μM C3 or DMSO control for 24 hours after a 24 transfection with Myc-Luc and B-Gal plasmid to normalize for transfection efficiency (n=6, mean±SEM). Relative light units calculated by normalizing Myc-Luc signal to B-gal signal. A one-way ANOVA was used for statistical analysis (P<0.05). The linear trend was also significant (pose test for linear trend, p, 0.05).
Wound Healing Assay. PC-3 cells were seeded in 6 well plates at 3×10^5 cells per well in complete media until the cells reached confluency. Three horizontal and three vertical scratches were made in the confluent monolayers using a standard 200 μL pipette tip and cellular debris were removed by washing with 1×DPBS three times. 1×RPMI-1640 supplemented with C3 or DMSO was added and cells were incubated for 48 hours as described previously. […] Images were uploaded and analyzed for scratch geometry using the tscratch program (96). First, global thresholding was performed, then individual images were manually inspected for single image threshold adjustment and scratch geometries were quantified. […] The samples were analyzed using the Dionex UltiMate 3000 RSLC Nano System coupled to the Q Exactive™ HF Hybrid Quadrupole-Orbitrap MS (Thermo Scientific). […]

Structure (SMILES): O=C(c1cc(F)cc2c1OCOC2)N1CCN(C2c3ccccc3-c3ccccc32)CC1 [Compound C3, [4-(9h-fluoren-9-yl)piperazino](6-fluoro-4h-1,3-benzodioxin-8-yl)methanone]
- reduction of c-myc binding activity (luciferase reporter) (PC-3, 50 μM): 36%
- effect on c-myc luciferase reporter activity (PC-3, 1 and 10 μM): no significant effect
